# Experimental data published in patent US9169509B2, “Topoisomerase 2b as a predictor of susceptibility to anthracycline-induced cardiotoxicity” (Board of Regents, The University of Texas System, priority 2013, dated 2015).
# Columns and labels:
# [1] = tested on: cardiomyocytes; experiment: Microarray gene expression profiling with Ingenuity pathway analysis of cardiomyocytes isolated from doxorubicin-treated mice; assay type: in vivo, mouse
# Experimental: Microarray-based Ingenuity pathway analysis was next used to study the effect of doxorubicin treatment in the Top2b^+/+ and Top2b^Δ/Δ heart in an unbiased way. Mice were treated with tamoxifen for 5 consecutive days. […] Cardiomyocytes were prepared from excised heart and mRNAs were extracted for microarray analysis. Ingenuity pathway analysis of microarray data based on expression changes (>1.5 fold) of 59,306 genes upon doxorubicin treatment identified perturbation (mainly activation) in p53 and β-adrenergic signaling pathways in Top2b^+/+ cardiomyocytes (left bars), but not in Top2bΔ/Δ cardiomyocytes (center bars) (FIG. 1a, FIG. 4a, and Table 1). No difference was found between untreated Top2b^+/+ and Top2b^Δ/Δ cardiomyocytes (right bars). Of particular interest is a 200 fold up-regulation of the transcript encoding p53DINP1, a p53-inducible gene that regulates apoptosis (Sohal et al., 2001) (FIG. 4b). There were also increases in the transcript of Apaf1, Bax, and Fas, genes important in the apoptosis pathway (Ogasawara et al., 1983) (FIG. 4c). Both p53DINP1, Apaf1, Bax, Mdm2, and Fas up-regulation were only observed in doxorubicin-treated Top2b^+/+, but not Top2b^Δ/Δ cardiomyocytes. This is consistent with the previous observation that doxorubicin and Top2b formed a DNA ternary cleavage complex to induce DNA double strand breaks (DSBs), leading to cell death (9).
# To gain further insight into the pathogenesis of doxorubicin-induced cardiotoxicity, the transcriptome analysis was repeated 72 h following doxorubicin exposure. The Ingenuity pathway analysis of microarray data based on expression changes (>1.5 fold) of 59,306 genes upon doxorubicin treatment identified perturbation (mainly repression) in the mitochondria dysfunction and oxidative phosphorylation pathways in Top2b^+/+ cardiomyocytes (left bars), but not in Top2b^Δ/Δ cardiomyocytes (middle bars). No difference was found between untreated Top2b^+/+ and Top2b^Δ/Δ cardiomyocytes (right bars). There was a complete change in the ingenuity pathway profiles 72 h following doxorubicin exposure (FIGS. 1a,d). Early activation in the p53 pathway was replaced by mitochondrial dysfunction and oxidative phosphorylation pathways in the Top2b^+/+, but not Top2b^Δ/Δ cardiomyocytes (FIGS. 1a,d and Table 2). […] This was confirmed by qPCR of analysis of PGC-1α and PGC-1β transcripts (FIG. 1e). […] Consistent with the critical role exerted by PGC-1α and PGC-1β in mitochondrial biogenesis (Arany, Z. et al., 2006; Lai, L. et al., 2008), transcripts of key electron transport chains, such as Ndufa3 (NADH dehydrogenase 1 alpha subcomplex, 3, Complex1), Sdha (succinate dehydrogenase complex, subunit A, Complex II), and Atp5a (alpha subunit of Complex V) were decreased in the doxorubicin treated Top2b^+/+, but much less so in Top2b^Δ/Δ cardiomyocytes (FIG. 1e). […] Thus, in the presence of Top2b, doxorubicin caused decreases in transcripts of genes involved in the regulation of mitochondria biogenesis and function.
# Total RNA was extracted from cardiomyocytes isolated from mouse heart 16 or 72 h after treatment with doxorubicin (25 mg/kg) or drug vehicle using TRIZOL reagent (Invitrogen), then purified with RNeasy Mini Kit (Qiagen) according to the manufacturer's instructions. Purified RNA samples were shipped on dry ice to Miltenyi Biotec Inc. for microarray analysis. Quality control of the sample RNA was performed by the company. Before hybridization, 100 ng of each sample RNA was used for T7-based amplification and Cy3 labeling. The hybridization procedure was performed according to the Agilent 60-mer oligo microarray processing protocol using the Agilent Gene Expression Hybridization Kit (Agilent Technologies). After an overnight hybridization (65° C.) the microarrays were washed and scanned using Agilent Microarray Scanner System (Agilent Technologies).
# [2] = tested on: cardiomyocytes; experiment: RT-qPCR of cardiomyocytes isolated from doxorubicin-treated mice; assay type: in vivo, mouse
# Experimental: Isolation of cardiomyocytes from mouse heart was carried out with Langendorff perfusion apparatus according to the standard protocol described above. Total RNA extraction was performed with TRIZOL Reagent (Invitrogen) and purification with RNeasy Mini Kit (QIAGEN) according the manufacturer's protocol. The concentration of RNA obtained was measured using a super-sensitive NanoDrop ND1000 spectrophotometer (Thermo Scientific). Reverse transcription reaction was performed by using the High Capacity RNA-to-cDNA Kit (Applied Biosystem). In brief, cDNA was generated from 1 μg of RNA by RT Enzyme Mix according to the manufacturer's instructions on a PCR thermocycler (S1000TM Thermal Cycler, BIO-RAD, USA). The resulting cDNA was diluted to a final concentration of 50 ng/μl for PCR amplification. Real time quantitative PCR was carried out by using a 7900HT Fast Real-Time PCR System (Applied Biosystems). Mouse TaqMan® Gene primers and probes (FAM, Applied Biosystem), were used in PCR amplification. Mouse GAPDH was used as internal control (VIC®/MGB Probe, Primer Limited, Applied Biosystem). The following TaqMan® Gene primers/probes were used Sdha (Mm01352366_m1), ATP5a1: (Mm00431960_m1), Ndufa3 (Mm01329704_g1), Ppargcla (PGC-1α, Mm01208835_m1), Ppargc1b (PGC-1β, Mm00504720_m1), Esrra (EER, Mm00433143_m1), Trp53inp1 (Mm00458141_m1), Fas: (Mm00433237_m1), Apaf1 (Mm01223702_m1), Bax (Mm00432051_m1), Mdm2 (Mm01233136_m1), and GAPDH: Mouse GAPD (GAPDH) Endogenous Control (VIC®/MGB Probe, Primer Limited). Comparative analyses of each gene were performed using company-provided softwares, SDS2.4 and RQ Manager 1.2.1 (Applied Biosystems). All amplifications were carried out at least in duplicates. The mRNA expression levels of each gene were calculated by using the 2-ΔΔCt (comparative threshold cycle) method, as detailed by the manufacturer (Applied Biosystems).
# [3] = Top2b+/+ cardiomyocytes, 16 hrs after doxorubicin 25 mg/kg i.p.
# [4] = Top2b+/+ cardiomyocytes, 72 hrs after doxorubicin 25 mg/kg
# [5] = wild type hearts, 72 h after doxorubicin, not in Top2b deleted
smiles,measurement,setting,value
COc1cccc2c1C(=O)c1c(O)c3c(c(O)c1C2=O)C[C@@](O)(C(=O)CO)C[C@@H]3O[C@H]1C[C@H](N)[C@H](O)[C@H](C)O1 [doxorubicin],"Up-regulated genes associated with p53 signaling pathway (expression change, genes listed in Table 1)",[1]; [3],Up-regulated genes (>1.5 fold) associated with p53 signaling pathway
same,Down-regulated genes associated with mitochondrial dysfunction and oxidative phosphorylation pathways (genes listed in Table 2),[1]; [4],Down-regulated Genes (>1.5 fold)
same,Up-regulated genes associated with mitochondrial dysfunction and oxidative phosphorylation pathways (genes listed in Table 2),[1]; [4],Up-regulatedGenes (>1.5 fold)
same,Expression change of the genes identified in the p53 pathway,"[1]; Top2bΔ/Δ cardiomyocytes, 16 hrs after doxorubicin 25 mg/kg i.p.","TP53INP1 is also called p53DINP1. The list was generated by Ingenuity software, and none of the genes identified in the p53 pathway had an expression change that reached 1.5 fold in Top2b^Δ/Δ cardiomyocytes."
same,Expression change of the genes identified in the mitochondrial dysfunction and oxidative phosphorylation pathways,"[1]; Top2bΔ/Δ cardiomyocytes, 72 hrs after doxorubicin 25 mg/kg","The list was generated by Ingenuity software, and none of the genes identified in the 2 pathways had an expression change that reached 1.5 fold in Top2b^Δ/Δ cardiomyocytes."
same,PGC-1α downregulation,[1]; [5],1.5 fold
same,PGC-1β downregulation,[1]; [5],1.5 fold
same,"Transcript of Apaf1, Bax, and Fas (apoptosis pathway genes)",[2]; [3],increases
same,Up-regulation of the transcript encoding p53DINP1 (TP53INP1),[2]; [3],200 fold
same,Genes involved in mitochondrial biogenesis (RT-qPCR),"[2]; Top2b+/+ hearts, chronic doxorubicin 5 mg/kg once a week for 5 weeks",Reduction of genes involved in mitochondrial biogenesis
same,"Transcripts of Ndufa3, Sdha and Atp5a (electron transport chain)","[2]; doxorubicin treated Top2b+/+ cardiomyocytes, 72 h, much less so in Top2bΔ/Δ",decreased
same,Erra transcript,"[2]; doxorubicin-treated wild type cardiomyocytes, 72 h, not in Top2b-deleted",down-regulated
